Entries after “also recorded” stand apart in the source; their conditions may differ.
How the values were obtained:
[1] = system: S-adenosylmethionine decarboxylase (SAMDC); details: in-vitro; cited from earlier work
[2] = system: spermidine/spermine N^1 -acetyltransferase (SSAT); assay: SSAT induction in cultured human tumor cell lines in-vitro; assay type: cell-based; details: for SSAT induction (FIG. 5, words) / SSAT: 48 hours
Experimental: To illustrate this embodiment, three polyamine analogs comprising bis-ethyl spermine analogs were used to treat MALME-3 human melanoma cells cultured in-vitro, and MALME-3 cells implanted as human xenografts in the athymic nude mouse model (Bernacki et al., 1992, supra). For in-vitro treatment, MALME-3 cells were maintained as a monolayer culture growing in RPMI 1640 containing 2% N-2-hydroxy-piperazine-N^1 -ethanesulfonic acid/3-N-morpholinopropanesulfonic acid pH 7.4 as a buffer, 1 mM aminoguanidine as an inhibitor of serum oxidase, and 10% of a semidefined serum substitute. Cells were seeded at 2×10^5 cells/T-75 flask and incubated 24 hours before treatment with analogues. Following treatment with 10 μM of the respective bis-ethyl spermine analog, control and treated cultured cells were trypsinized, washed, and suspended for enzyme assays and cell number determinations.
In accordance with the above methods for assaying the induction of SSAT levels in tumor cell lines treated in-vitro and xenografts treated in-vivo, the induction pattern also correlates fairly well amongst different clonal lines of a particular tumor type. This can be illustrated with melanoma clonal lines LOX, SH-1, PANUT-3, and MALME-3.
In accordance with the above methods for assaying the induction of SSAT levels in tumor cell lines treated in-vitro and xenografts treated in-vivo, the induction pattern also correlates fairly well amongst carcinomas of solid organs. This can be illustrated with malignant clonal lines A121, A549, and HT29.
As mentioned previously, cells from malignant solid tumor respond to polyamine analog therapy heterotypically. SSAT induction and antitumor response may vary not only among the solid tumor tissue type, but also with the clonal line of tumor of a particular solid tissue type. However, a correlation between the level of induction of SSAT and the potency of antitumor response has been observed in tumors of a particular solid tissue type. For example, seven human melanoma cell lines were assayed in-vitro for their response, as determined by cell growth and level of SSAT induction, to 10 μM BESPM at 48 hours post-treatment. As summarized in FIG. 5, growth among the cell lines decreases as SSAT induction increases.
To illustrate this embodiment, LOX and MALME-3 cell cultures were treated for 48 hours with 10 μm BESPM. The cells from each culture were harvested and assayed for SSAT activity. Media samples were prepared by treating the samples with 50% trichloroacetic acid to give a final concentration of 10% and then centrifuged at 15,000×g for 10 minutes. The supernatant was then filtered through a 0.22-μm filter, extracted with several volumes of ether, lyophilized, and resuspended in 10% trichloroacetic acid. N^1 -acetylspermidine levels of cells and media samples were then measured by use of high-pressure liquid chromatography. […] Similarly, N^1 -acetylspermidine levels from MALME-3 control cells, media from control cell cultures, and treated MALME-3 cells contained minimal levels of N^1 -acetylspermidine.

[3] = system: MALME-3 human melanoma xenografts; assay: antitumor response against MALME-3 human melanoma xenografts in mice; assay type: in vivo; details: for suppression of tumor growth after cessation of treatment: every 8 hours for 6 days, most effective dose; for % T/C (tumor growth suppression) / Regrowth Delay (time for median tumor volume to reach 200 mm^3): maximally tolerated dose
Experimental: b. Anticancer effects of polyamine analog therapy are determined by assessing the antiproliferative activity on the treated solid tumor by measuring one or more responses including tumor growth suppression, tumor regression, or repression of regrowth. Tumors were measured in three dimensions and tumor volume was calculated according to the formula:
[…] where 1 represents length; w--width; and h--height. Tumor sizes were monitored 2 times/week until the median volume (V=0.4(a^2 ×b) where a is the smaller of the two perpendicular tumor diameters). As an indication of drug toxicity, animal weights were also recorded at the time of tumor volume measurement. Statistical analyses were performed on mouse tumor size and weight parameters by using the Mann-Whitney test.
Tumor growth suppression was measured by plotting the mean tumor volume versus the number of days post-inoculation with polyamine analog (growth curve analyses). Suppression is determined by comparison with the growth of untreated tumors (%T/C). More specifically,: %T/C is (treated tumor volume minus pretreatment volume) divided by (control tumor volume minus pretreatment volume)×100. Typically this is measured either when the control tumor volume reaches 1000 mm^3, or at the last day of treatment.
Tumor regression is measured as a percentage representing the average percentage of decrease in tumor volume from the largest pretreatment volume value.
Repression of regrowth is represented as regrowth delay, determined as the number of days following cessation of treatment when median group tumor volume exceeds 200 mm^3 (an arbitrary indication of regrowth which was determined statistically).
For the in-vivo treatment, 10^7 cultured MALME-3 melanoma cells were injected subcutaneously into 20 gram female nude athymic mice. After four in-vivo passages, tumor was removed and 40-50 mm^3 fragments were selected for implantation into mice via subcutaneous trocar implantation. Mice developing palpable tumors of a similar size were divided into different treatment groups comprising mice per group. Following treatment of the mice with a dosage approaching the maximally tolerated dose of the respective bis-ethyl spermine analog, the tumor cells comprising the human xenograft were removed and assayed for SSAT induction. […] Also indicated in Table 1, the level of SSAT induction in-vivo by BESPM was less than 20 fold that of BEHSPM, and the level of SSAT induction in-vivo by BENSPM was about 6 fold greater than that of BESPM. Thus, a conclusion from the results depicted in Table 1 is the rank order in effectiveness of the his-ethyl spermine analogs to induce SSAT levels in-vitro correlated well with their effectiveness to induce SSAT levels in-vivo.
The in-vivo antitumor activities of BESPM, BEHSPM, and BENSPM, were compared against various human xenografts in nude athymic mice. Cultured human tumor cells were first passaged several times in female HSD nude athymic mice. Fragments of resultant tumor were implanted into mice via subcutaneous trocar implantation. Mice of different treatment groups were treated with one or more of the three bis-ethyl spermine analogs BESPM, BEHSPM, and BENSPM. Anti-proliferative activity was monitored by antitumor responses including tumor growth suppression, tumor regression, or repression of regrowth.
As illustrated in Table 1 with MALME-3 human melanoma cells, the rank order effectiveness of three polyamine analogs in inducing SSAT levels both in-vitro and in-vivo were BENSPM>BESPM>BEHSPM, with substantial differences in induction between them. The same three polyamine analogs were analyzed for their effectiveness in inducing a potent antitumor response in-vivo. Mice developing palpable tumors of a similar size were divided into different treatment groups comprising 5 mice per treatment group, and 10 control mice per treatment group. […]

[4] = MALME-3 xenograft, 40 mg/kg every 8 hours for 5 days

CCNCCCCNCCCCNCCCCNCC [BEHSPM, N^1,N^14 -bis(ethyl)homospermine]
SAMDC suppression [1]: similarly suppress ornithine and S-adenosyl-methionine decarboxylase levels | SSAT induction in-vitro ([2]; MALME-3 cells, 10 μM analog): 1108 pmol/min/10^6 cells | suppression of tumor growth after cessation of treatment ([3]; MALME-3 xenograft): 18 days | % T/C (tumor growth suppression) ([3]; MALME-3 xenograft): 43% | Regrowth Delay (time for median tumor volume to reach 200 mm^3) ([3]; MALME-3 xenograft): 14 days | antitumor activity ([3]; MALME-3 xenografts): less effective than BESPM

CCNCCCNCCCNCCCNCC [BENSPM, N^1,N^11 -bis(ethyl)norspermine]
SAMDC suppression [1]: similarly suppress ornithine and S-adenosyl-methionine decarboxylase levels | SSAT induction in-vitro ([2]; A121 ovarian, 10 μm BENSPM): 2,700 pmol/min/10^6 cells | SSAT induction in-vitro ([2]; A549 lung, 10 μm BENSPM): 22,755 pmol/min/10^6 cells | SSAT induction in-vitro ([2]; HT29 colon, 10 μm BENSPM): 3,640 pmol/min/10^6 cells | SSAT induction in-vitro relative to BESPM ([2]; MALME-3 cells, 10 μM): 5 to 6 fold | % T/C at 1 g ([3]; MALME-3M, BENSPM at 80 mg/kg): < 0% | Tumor Regression ([3]; MALME-3M, BENSPM at 80 mg/kg): Present | Regrowth Delay ([3]; MALME-3M, BENSPM at 80 mg/kg, dt 13 days): > 4.8 × dt | No Regrowth ([3]; MALME-3M, BENSPM at 80 mg/kg, for duration of experiment): 2/5 | lack of regrowth (FIG. 6) [3, 4]: two mice examined of the remaining five mice treated | regrowth delay (FIG. 6) [3, 4]: significant regrowth delay | tumor regression (FIG. 6) [3, 4]: showed tumor regression | suppression of tumor growth after cessation of treatment ([3]; MALME-3 xenograft): 40 days | % T/C (tumor growth suppression) ([3]; MALME-3 xenograft): 10% | Regrowth Delay (time for median tumor volume to reach 200 mm^3) ([3]; MALME-3 xenograft): 37 days | antitumor activity ([3]; MALME-3 xenografts): most effective of the three | apparent curing of xenografts on retreatment ([3]; MALME-3 xenografts, retreatment 2 weeks later): about 20%

CCNCCCNCCCCNCCCNCC [BESPM, N^1,N^12-bis(ethyl)spermine]
SAMDC suppression [1]: rapidly suppress ODC and SAMDC; also recorded: similarly suppress ornithine and S-adenosyl-methionine decarboxylase levels | SSAT induction (FIG. 5, words) ([2]; LOX and SH-1, 10 μM BESPM): lowest induction of SSAT levels | SSAT ([2]; LOX, 10 μM BESPM): 120 pmol/mg/min | SSAT induction in-vitro ([2]; LOX, 10 μm BESPM): 171 pmol/min/10^6 cells | SSAT ([2]; MALME-3, 10 μM BESPM): 12,405 pmol/mg/min | SSAT induction in-vitro ([2]; MALME-3, 10 μm BESPM (Table 2)): 19,520 pmol/min/10^6 cells | SSAT induction (FIG. 5, words) ([2]; MALME-3 and Ebey, 10 μM BESPM): highest SSAT activity | SSAT induction in-vitro relative to BEHSPM ([2]; MALME-3 cells, 10 μM): about 10 fold | SSAT induction in-vitro ([2]; PANUT-3, 10 μm BESPM): 10,343 pmol/min/10^6 cells | SSAT induction in-vitro ([2]; SH-1, 10 μm BESPM): 1100 pmol/min/10^6 cells | suppression of tumor growth after cessation of treatment ([3]; MALME-3 xenograft): 30 days | % T/C (tumor growth suppression) ([3]; MALME-3 xenograft): 34% | Regrowth Delay (time for median tumor volume to reach 200 mm^3) ([3]; MALME-3 xenograft): 27 days | antitumor activity ([3]; MALME-3 xenografts): significant antitumor activity
